The MBC is the smallest concentration meeting the test's criterion for killing. What is called MIC is the lowest concentration that inhibits growth of the organism. Usually CC50 stands for the concentration giving 50% cytotoxicity.

Data set [1] relates to S. epidermidis ATCC 12228. Put plainly: Antibacterial screening, broth microdilution (MIC/MBC). Type of data set: cell-based, Staphylococcus epidermidis. The following applies: for MIC: S. epidermidis ATCC 12228, MHB, 24 h, 35 °C. The procedure: (§1) The antimicrobial activities of a series of compounds 1–5 were tested through the utilization of seven reference species, encompassing both Gram-positive (Staphylococcus aureus ATCC 29213, Staphylococcus epidermidis ATCC 12228, Micrococcus luteus ATCC 10240) and Gram-negative (Escherichia coli ATCC 25922, Klebsiella pneumoniae ATCC 13883, Proteus mirabilis ATCC 12453, Acinetobacter baumannii ATCC 19606) bacteria as model microorganisms. For this purpose, microbial suspensions were prepared in sterile saline (0.85% NaCl) with an optical density of 0.5 McFarland standard, yielding a concentration of 150 × 10^6 CFU/mL (CFU, colony-forming units). All of the stock solutions of the tested compounds were dissolved in DMSO. Amoxicillin (Glentham Life Sciences Ltd., Corsham, UK) was used as a positive control.
(§2) The MIC values of the tested compounds were determined by serial twofold dilutions of 1–5 in Mueller Hinton Broth (MHB, Biomaxima, Lublin, Poland). The range of final 1–5 concentrations used was from 0.49 up to 1000 μg/mL, and for amoxicillin from 0.12 up to 250 μg/mL in the 96-well microtiter plates (Medlab, Raszyn, Poland), starting with 98 μL MHB and 2 μL bacterial inoculum added to each well. Positive controls consisted of 100 μL MHB in each well with the tested compounds at the same concentration range. The negative controls consisted of 100 μL of MHB only. Each set of tests and controls was established with three replicates. The microtiter plates were then subjected to an incubation period of 24 h at a temperature of 35 ± 2 °C. After incubation, the optical density of the microbial growth was measured at a wavelength of 600 nm using a microplate reader, the Biotek Elx800 (BioTek Instruments, Inc., Winooski, VT, USA). The MIC value was defined as the lowest concentration of the tested compound at which there was no visible growth of the tested microorganisms. The determination of the MIC values was achieved by employing the broth microdilution method, in accordance with the recommendations of the European Committee on Antimicrobial Susceptibility Testing (EUCAST). […] Then, the MHA plates were incubated overnight at 35 ± 2 °C. […] The MIC and MBC values were reported in μg/mL, according to the EUCAST reference.
A general note: Broth dilution looks for growth in wells or tubes with falling amounts of substance.

The next data set deals with A. baumannii ATCC 19606. Described as above. It is filed as cell-based, Acinetobacter baumannii. The following applies: for MIC: A. baumannii ATCC 19606, MHB, 24 h, 35 °C. As for the experimental part:
as §1, §2

The next data set deals with K. pneumoniae ATCC 13883. The data set is described as above. Type of data set: cell-based, Klebsiella pneumoniae. The following applies: for MIC: K. pneumoniae ATCC 13883, MHB, 24 h, 35 °C. As for the experimental part: as §1, §2
In a further data set the test system is S. aureus ATCC 29213. Described as above. Type of data set: cell-based, Staphylococcus aureus. The following applies: for MBC: S. aureus ATCC 29213; for MIC: S. aureus ATCC 29213, MHB, 24 h, 35 °C. The procedure:
as §1, §2

The subject of the next data set is VERO cells. Put plainly: Cytotoxicity, microculture tetrazolium (MTT) test, VERO. It is filed as cell-based. As for the experimental part:
(§3) The cytotoxicity of biaryl monophosphines was tested in vitro in normal (VERO) and cancer-derived (H1HeLa) cells after 24 h of incubation using a microculture tetrazolium test. Table 2 presents the CC50 (concentrations decreasing the cellular viability by 50%) values calculated from dose–response cytotoxicity curves (Figure 4).
(§4) Cytotoxicity was evaluated using a microculture tetrazolium test as previously described, and details can be found in the Supplementary Materials. The cell lines used in the presented study were acquired from the American Type Culture Collection (ATCC); the one used for cytotoxicity testing included non-cancerous VERO (kidney; ATCC CCL-81) cells and cancer-originating H1HeLa (cervical adenocarcinoma; ATCC CRL-1958) cells. VERO cells were cultured in Dulbecco’s Modified Eagle’s Medium (DMEM; Corning, Tewksbury, MA, USA), while Eagle’s Minimum Essential Medium (MEM; Corning) was used for H1HeLa. Antibiotics (penicillin–streptomycin solution, Corning) and fetal bovine serum (FBS, Corning) were added to cell media. Cells were incubated in a 5% CO2 atmosphere at 37 °C (CO2 incubator, Panasonic Healthcare Co., Tokyo, Japan). Briefly, the monolayers of VERO or H1HeLa cells in 96-well plates (Falcon, Corning) were treated with serial dilutions of selected compounds for 24 h. After this, the medium was removed, the plates were washed with phosphate buffered saline (PBS; Corning), a 10% solution of (3-(4,5-dimethylthiazol-2-yl)-2,5-diphenyltetrazolium bromide (MTT; Sigma-Aldrich, St. Louis, MO, USA) (5 mg/mL) in FBS-free cell media was added, and the incubation continued for the next 4 h. Subsequently, the precipitated formazan crystals were dissolved, and after overnight incubation at 37 °C, the Synergy H1 Multi-Mode Microplate Reader (BioTek Instruments, Inc., Winooski, VT, USA) with Gen5 software (ver. 3.09.07; BioTek Instruments, Inc.) was used for absorbance acquisition (540 and 620 nm). Data was exported to GraphPad Prism (ver. 10) to calculate the CC50 values (50% cytotoxic concentration) from dose–response curves.
(§5) Aromaticity Tuning in Biaryl Monophosphines and Their Derivatives […]
(§6) Cell line maintenance and in vitro experiments
(§7) The cytotoxicity of selected biaryl monophosphines was evaluated in vitro towards normal VERO (ATCC, CCL-81) cells and cancer-derived cell line H1HeLa (cervical adenocarcinoma; ATCC (American Type Culture Collection) CRL-1958) using 3-(4,5-dimethylthiazol-2-yl)-2,5-diphenylte-trazolium bromide (MTT) based protocol.
(§8) Media used for in vitro culturing included Dulbecco's Modified Eagle's Medium (DMEM, Corning, Tewksbury, MA, USA) used for VERO cells and Modified Eagle Medium (MEM, Corning) used for H1HeLa. Cell media used in the experiments were supplemented with antibiotics (Penicil-lin-Streptomycin Solution, Corning) and fetal bovine serum (FBS, Corning) – 10% (cell passaging) and 2% (cell maintenance and experiments). Phosphate-buffered saline (PBS) and trypsin were bought from Corning, whereas MTT (3-(4,5-dimethylthiazol-2-yl)-2,5-diphenyltetrazolium bromide) from Sigma (Sigma-Aldrich, St. Louis, MO, USA). SDS was purchased from PanReac Applichem (Darmstadt, Germany). Incubation was carried out in a 5% CO2 atmosphere at 37°C (CO2 incubator, Panasonic Healthcare Co., Tokyo, Japan).
(§9) Concentrations of cells for passaging were as follows: VERO – 1.5*10^5 cells/mL, H1HeLa – 2*10^5 cells/mL. Routine observations of cell cultures and experiments were carried out using an in-verted microscope (CKX41, Olympus Corporation, Tokyo, Japan) equipped with a ca mera (Moti-cam 3+, Motic, Hong Kong), and the results were recorded (Motic Images Plus 2.0, Motic).
(§10) Stock solutions of biaryl monophosphines were prepared by dissolving the samples in cell culture grade DMSO (PanReac Applichem).
(§11) Evaluation of cytotoxicity
(§12) Cytotoxicity was tested using an MTT-based protocol. The cells were passaged into 96-well plates (Falcon, TC-treated, Corning) and, after overnight incubation, treated with serial dilutions of […]

The next data set deals with P. mirabilis ATCC 12453. Put plainly: Antibacterial screening, broth microdilution (MIC/MBC). It is filed as cell-based, Proteus mirabilis. The following applies: for MIC: P. mirabilis ATCC 12453, MHB, 24 h, 35 °C. The procedure: as §1, §2
A further data set concerns M. luteus ATCC 10240. Described as above. Type of data set: cell-based, Micrococcus luteus. The following applies: for MBC: M. luteus ATCC 10240; for MIC: ATCC10240, 24 h, M. luteus ATCC 10240, MHB, 24 h, 35 °C. The procedure:
as §1, §2

Another data set concerns E. coli ATCC 25922. The data set is described as above. Type of data set: cell-based, Escherichia coli. The following applies: for MIC: E. coli ATCC 25922, MHB, 24 h, 35 °C. As for the experimental part:
as §1, §2

The next data set has as its system H1HeLa cells. Put plainly: Cytotoxicity, microculture tetrazolium (MTT) test, H1HeLa. It is filed as cell-based. As for the experimental part:
as §3, §4, §5, §6, §7, §8, §9, §10, §11, §12

The nature of data set [2]: Cytotoxicity, microculture tetrazolium (MTT) test, VERO. It is filed as cell-based. The following applies: African green monkey, ATCC CCL-81; VERO (normal kidney cells), 24 h incubation, MTT; ± SD. As for the experimental part:
as §3, §4, §5, §6, §7, §8, §9, §10, §11, §12

A short description of data set [3]: Cytotoxicity, microculture tetrazolium (MTT) test, H1HeLa. Type of data set: cell-based. The following applies: human, H1HeLa cells (cervical adenocarcinoma, ATCC CRL-1958); H1HeLa (cervical adenocarcinoma), 24 h incubation, MTT; ± SD. As for the experimental part:
as §3, §4, §5, §6, §7, §8, §9, §10, §11, §12

The mark [4] stands for this setting: Staphylococcus epidermidis, ATCC12228, read-out: MIC.
Where [5] appears, read: Staphylococcus epidermidis, ATCC12228, S. epidermidis ATCC 12228, read-out: MBC.
Where [6] appears, read: Acinetobacter baumannii, ATCC19606, read-out: MIC.
Setting [7] is: Klebsiella pneumoniae, ATCC13883, read-out: MIC.
Setting [8] is: Staphylococcus aureus, ATCC29213, read-out: MIC.
[9] abbreviates: Staphylococcus aureus, ATCC29213, read-out: MBC.
Setting [10] is: Proteus mirabilis, ATCC12453, read-out: MIC.
[11] abbreviates: Micrococcus luteus, ATCC10240, read-out: MBC.
Setting [12] is: Escherichia coli, ATCC25922, read-out: MIC.

In brackets after ≈: the same amount, converted by molar mass. Like-named read-outs stand apart in the source and are kept apart here.

Regarding “Dicyclohexyl[1,4-dimethoxy-3-(2,4,6-trimethoxyphenyl)naphthalen-2-yl]phosphane [Compound 5]”, the MBC is 1000 µg/mL in data set [1] (S. epidermidis ATCC 12228), more than 1000 µg/mL in the data set on S. aureus ATCC 29213 and 125 µg/mL in the data set on M. luteus ATCC 10240. Moreover, in data set [1] (S. epidermidis ATCC 12228), the “type of activity (bactericidal or bacteriostatic)” value is listed as “bactericidal”. The MIC was 31.25 to 62.5 µg/mL in data set [1]; 1000 µg/mL with A. baumannii ATCC 19606; more than 1000 µg/mL with K. pneumoniae ATCC 13883; 125 to 250 µg/mL with S. aureus ATCC 29213; more than 1000 µg/mL with P. mirabilis ATCC 12453; more than 1000 µg/mL in the data set on E. coli ATCC 25922. For the same molecule, the cytotoxic concentration (CC50) came to 89.88 ± 4.11 µg/mL in the data set on VERO cells and 200.85 ± 13.08 µg/mL with H1HeLa cells.

Take `COc1ccccc1-c1c(P(=O)(C2CCCCC2)C2CCCCC2)c(O)c2ccccc2c1O` [Compound 4, 2-(Dicyclohexylphosphoryl)-3-(2-methoxyphenyl)naphthalene-1,4-diol]: the MIC in [1] (setting [4]) is 500 µg/mL (≈ 1040 µM); with A. baumannii ATCC 19606 (setting [6]), 1000 µg/mL (≈ 2090 µM); in the data set with K. pneumoniae ATCC 13883 (setting [7]), 500 µg/mL (≈ 1040 µM); with S. aureus ATCC 29213 (setting [8]), 250 µg/mL (≈ 522 µM); with P. mirabilis ATCC 12453 (setting [10]) it was 1000 µg/mL (≈ 2090 µM); with M. luteus ATCC 10240 (Micrococcus luteus), 15.6 to 31.2 µg/mL (≈ 32.7 to 65.3 µM). The MIC in the data set on E. coli ATCC 25922 (setting [12]) lay within 500 to 1000 µg/mL (≈ 1040 to 2090 µM). In addition, the MBC (in [1] (setting [5]); in the data set with S. aureus ATCC 29213 (setting [9]); in the data set on M. luteus ATCC 10240 (setting [11])) was more than 1000 µg/mL in each case. The CC50 at 24 h in data set [2] stood at 4.7 ± 0.41 µg/mL; in [3], 5.53 ± 0.12 µg/mL.

Turning to `CC1(C)S[C@@H]2[C@H](NC(=O)[C@H](N)c3ccc(O)cc3)C(=O)N2[C@H]1C(=O)O` [Amox, Amoxicillin, reference compound], the minimum inhibitory concentration (MIC) in data set [1] (setting [4]) stood at 31.2 µg/mL (≈ 85.5 µM); in the data set with A. baumannii ATCC 19606 (setting [6]), 125 µg/mL (≈ 342 µM); with K. pneumoniae ATCC 13883 (setting [7]), 250 µg/mL (≈ 684 µM); in the data set on S. aureus ATCC 29213 (setting [8]), 0.98 µg/mL (≈ 2.68 µM); in the data set on P. mirabilis ATCC 12453 (setting [10]) it was 0.49 µg/mL (≈ 1.34 µM); in the data set with M. luteus ATCC 10240 (Micrococcus luteus), 31.2 µg/mL (≈ 85.5 µM). Also, the MIC in the data set with E. coli ATCC 25922 (setting [12]) was determined as 3.91 µg/mL (≈ 10.7 µM). The MBC in data set [1] (setting [5]) is 31.2 µg/mL (≈ 85.5 µM); in the data set on A. baumannii ATCC 19606 (Acinetobacter baumannii, ATCC19606, A. baumannii ATCC 19606) it was 125 µg/mL (≈ 342 µM); with K. pneumoniae ATCC 13883 (Klebsiella pneumoniae, ATCC13883, K. pneumoniae ATCC 13883) it was 250 µg/mL (≈ 684 µM); in the data set with S. aureus ATCC 29213 (setting [9]), 0.98 µg/mL (≈ 2.68 µM); in the data set with P. mirabilis ATCC 12453 (Proteus mirabilis, ATCC12453, P. mirabilis ATCC 12453) it was 0.49 µg/mL (≈ 1.34 µM); in the data set on M. luteus ATCC 10240 (setting [11]), 31.2 µg/mL (≈ 85.5 µM). In the data set with E. coli ATCC 25922 (Escherichia coli, ATCC25922, E. coli ATCC 25922), the MBC stood at 7.81 µg/mL (≈ 21.4 µM).

Source of the values: article PMC12525867, “Aromaticity Tuning in Biaryl Monophosphines and Their Derivatives” (Molecules, 2025).
